The values below come from patent US9492453B2 (priority 2007, dated 2016).

The nature of series [1]: Human dose prediction (estimated human pharmacokinetic parameters). The following applies: plasma; from rat and dog Vss corrected by Fu, human/Fu (rat or dog); read-out: Human Vss (Volume of Distribution at Steady State), estimated.
Series [2] has as its target AKT1 (PKBα) (Homo sapiens (Human), UniProt P31749). The note with it: read-out: In vitro PKBα Mean IC50; AKT1/PKBα active enzyme, Caliper LabChip LC3000.
Series [3] relates to PKB (Akt). The following applies: read-out: Cellular PKB Mean IC50; MDA-MB-468 cells, phosphorylation of Serine-9 of GSK-3β, 2 hours incubation.

Structures are written as SMILES. pIC50: −log10 of the molar value.

As usually defined, the pIC50 is −log10 of the IC50, conventionally taken in molar units.

Sequence of AKT1 (PKBα) (P31749 whole entry): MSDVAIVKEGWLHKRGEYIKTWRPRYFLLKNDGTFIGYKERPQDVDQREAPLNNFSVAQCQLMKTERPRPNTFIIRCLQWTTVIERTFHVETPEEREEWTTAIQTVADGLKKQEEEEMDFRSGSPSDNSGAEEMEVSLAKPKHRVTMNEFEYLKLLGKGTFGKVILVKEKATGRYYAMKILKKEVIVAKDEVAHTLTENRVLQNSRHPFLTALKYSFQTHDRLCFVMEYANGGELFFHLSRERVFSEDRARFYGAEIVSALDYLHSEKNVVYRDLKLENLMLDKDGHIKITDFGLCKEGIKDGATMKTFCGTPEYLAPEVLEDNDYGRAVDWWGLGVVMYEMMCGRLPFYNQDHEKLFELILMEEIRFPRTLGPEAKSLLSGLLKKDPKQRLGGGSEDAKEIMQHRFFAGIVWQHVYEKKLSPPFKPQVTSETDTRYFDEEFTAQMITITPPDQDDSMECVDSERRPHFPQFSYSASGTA

Take `NC1(C(=O)N[C@@H](CCO)c2ccc(Cl)cc2)CCN(c2ncnc3[nH]ccc23)CC1` [Example 9, (S)-4-amino-N-(1-(4-chlorophenyl)-3-hydroxypropyl)-1-(7H-pyrrolo[2,3-d]pyrimidin-4-yl)piperidine-4-carboxamide]: the Vd in series [1] is 3.3 L/kg.

Turning to `NCC(NC(=O)C1(N)CCN(c2ncnc3[nH]ccc23)CC1)c1ccc(Cl)cc1` (centres unmarked) [Example 5, 4-amino-N-(2-amino-1-(4-chlorophenyl)ethyl)-1-(7H-pyrrolo[2,3-d]pyrimidin-4-yl)piperidine-4-carboxamide], the negative-log IC50 (pIC50) in series [2] is 8.01; in series [3] it was 6.57.

With `NC1(C(=O)N[C@@H](CCO)c2ccc(Cl)cc2)CCN(c2ncnc3[nH]cnc23)CC1` [Example 22, (S)-4-amino-N-(1-(4-chlorophenyl)-3-hydroxypropyl)-1-(9H-purin-6-yl)piperidine-4-carboxamide], the figures for the pIC50 in series [2] and in series [3] were 8.12 and 6.77, respectively.
